Columns and labels:
[1] = Single-dose pharmacokinetics in monkeys (oral and IV); type: in vivo; details: male, rhesus monkey, plasma
Description: Male Sprague-Dawley rats (N=8; N=4 oral and N=4 intravenous [IV]) weighing approximately 250-280 g and male rhesus monkeys (N=4, crossover) weighing 6.0-8.8 kg were used for the PK studies. In rats, the IV dose of crystalline Form II of Compound (I) at 2 mg/kg (0.4 mL/kg) was administered as a bolus and the oral dose was administered by gavage at 15 mg/kg (5 mL/kg). In monkeys, the IV dose of Form II at 2 mg/kg (0.1 mL/kg) was administered as a slow bolus and the oral dose was administered via nasogastric tube at 15 mg/kg (5 mL/kg). Blood samples were serially collected pre-dose, and at 0.083 (IV only), 0.25, 0.50, 1, 2, 4, 6, 8, 10, 24, 48, 72, and 96 h post-dose. The concentrations of Form II in rat and monkey plasma were determined by LC/MS/MS analysis in the positive ion mode using a heated nebulizer interface. The lower limit of quantitation was 2.5 ng/mL (approximately 0.00697 μM).

[2] = tested on: systemic blood pressure and heart rate; test: Blood pressure profile in chronically instrumented (telemetered) rats; type: in vivo, rat; details: for DAP change / PP change / SAP change / Activity change / HR change / MAP change: 1 hour post dose, vehicle subtracted, mean ± SEM; for Activity change / HR change / MAP change: listed as crystalline Form II of Compound (I)
Description: A single oral gavage dose was administered (volume: 5 mL/kg). […] Following the completion of the Latin square, two additional dose concentrations were evaluated (0.6 and 10 mg/kg, n=3 per group).
All IV doses were administered in manually restrained rats via tail vena-puncture. It should be noted that vehicle controls were also administered.
A 24-hour recording was performed prior to dosing (vehicle alone) and after each oral dose.

[3] = Cardiovascular safety in anesthetized dogs, continuous IV infusion 90 min; type: in vivo, dog; details: dog, plasma, escalating IV infusion rates, read-out: plasma concentration at the end of infusion
Description: (§1) The potential effects of Form II of Compound (I) on the functions of the nervous system, cardiovascular system, and respiratory system were evaluated in a battery of safety pharmacology studies that included an in vitro human ether-a-go-go-related gene (hERG) assay and in vivo studies in rats, dogs, and monkeys. CNS effects were tested in rats at single doses at 15, 75, and 225 mg/kg.
(§2) Effects of Form II on the cardiovascular system were tested in several studies. Potential QTc effects were tested in vitro and in vivo.
(§3) Hemodynamic effects were tested in dogs and monkeys. […] However, Form II did produce dose-independent increases in systolic (12-15 mm Hg), diastolic (7-10 mm Hg), and mean arterial pressures (9-12 mm Hg) in conscious, chair-restrained monkeys given single oral doses at 15, 75, or 150 mg/kg and monitored for 6 h post-dose.

dogs = test: as above; type: in vivo, dog; details: escalating IV infusion rates
Description: as §1, §2, §3

rats = test: Respiratory effects in male rats, single oral doses; type: in vivo, rat
Description: Respiratory effects were investigated in rats and dogs. […] Mean Form II plasma concentration was approximately 30 μM (10600 ng/mL) at the end of infusion and approximately 4 μM (1250 ng/mL) at 60 min post-infusion.

[4] = molecular target: T1, NMDA-GluN2B receptors, dog frontal cortex homogenate (Canis lupus familiaris, UniProt Q5R1P0+Q5R1P3); test: Radioligand binding, dog frontal cortex homogenate; details: geometric mean
T1 construct: frontal cortex homogenate (dog and rhesus monkey); from tissue; host or cells: dog frontal cortex homogenate
T1 sequence (Q5R1P3 27-1485, other chains not shown): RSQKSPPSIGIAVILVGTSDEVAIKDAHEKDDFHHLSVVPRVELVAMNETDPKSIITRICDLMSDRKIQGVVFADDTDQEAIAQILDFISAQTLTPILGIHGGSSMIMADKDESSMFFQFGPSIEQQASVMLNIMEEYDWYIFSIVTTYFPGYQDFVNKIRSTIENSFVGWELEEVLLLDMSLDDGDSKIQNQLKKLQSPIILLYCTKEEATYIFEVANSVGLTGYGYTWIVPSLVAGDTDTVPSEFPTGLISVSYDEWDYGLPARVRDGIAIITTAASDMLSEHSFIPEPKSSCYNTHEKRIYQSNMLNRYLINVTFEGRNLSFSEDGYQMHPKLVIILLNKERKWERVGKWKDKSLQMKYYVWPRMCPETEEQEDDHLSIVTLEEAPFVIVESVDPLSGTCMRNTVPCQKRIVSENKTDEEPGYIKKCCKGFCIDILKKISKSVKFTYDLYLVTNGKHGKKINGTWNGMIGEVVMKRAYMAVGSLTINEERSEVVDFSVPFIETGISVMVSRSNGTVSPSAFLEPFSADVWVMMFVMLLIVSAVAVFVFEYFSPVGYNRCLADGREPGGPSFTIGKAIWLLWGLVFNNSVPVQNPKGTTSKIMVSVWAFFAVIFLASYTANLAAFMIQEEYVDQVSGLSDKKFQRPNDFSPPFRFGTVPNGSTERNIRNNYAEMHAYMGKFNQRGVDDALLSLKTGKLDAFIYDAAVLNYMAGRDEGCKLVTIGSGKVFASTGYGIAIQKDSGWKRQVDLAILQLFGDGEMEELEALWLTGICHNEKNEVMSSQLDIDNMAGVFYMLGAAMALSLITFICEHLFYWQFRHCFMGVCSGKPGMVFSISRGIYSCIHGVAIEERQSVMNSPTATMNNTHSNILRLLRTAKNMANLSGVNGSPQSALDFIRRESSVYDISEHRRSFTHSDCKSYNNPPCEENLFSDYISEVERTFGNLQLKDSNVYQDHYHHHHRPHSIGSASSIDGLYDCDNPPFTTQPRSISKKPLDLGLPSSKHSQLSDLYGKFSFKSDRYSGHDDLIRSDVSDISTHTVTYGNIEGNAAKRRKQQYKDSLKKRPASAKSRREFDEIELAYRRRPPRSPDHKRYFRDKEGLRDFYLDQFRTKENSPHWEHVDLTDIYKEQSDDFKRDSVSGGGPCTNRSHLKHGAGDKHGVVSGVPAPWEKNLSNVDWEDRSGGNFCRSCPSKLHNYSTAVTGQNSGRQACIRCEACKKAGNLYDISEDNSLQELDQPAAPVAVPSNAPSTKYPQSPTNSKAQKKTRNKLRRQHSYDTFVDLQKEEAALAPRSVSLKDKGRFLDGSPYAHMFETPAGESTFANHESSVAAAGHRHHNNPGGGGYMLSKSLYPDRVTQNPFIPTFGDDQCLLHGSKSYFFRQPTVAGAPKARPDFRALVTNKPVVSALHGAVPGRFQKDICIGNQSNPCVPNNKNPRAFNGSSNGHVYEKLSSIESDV
Description: Radioligand binding assays were performed at room temperature (or 37° C.) in 96-well microtiter plates with a final assay volume of […] in 20 mM HEPES buffer (pH 7.4) containing 150 mM NaCl. […] Nonspecific binding was assessed using N-(3-chlorobenzyl)-4-iodobenzimidamide (final concentration, 10 μM), and total binding was measured by addition of DMSO (final concentration, 2%). L(tk−) cell membranes expressing human GluN1a/GluN2B receptors (final concentration, 40 pM) and [^3H]-[(E)-N1-(2-methoxybenzyl)-cinnamamidine] (final concentration, 1 nM) were added to all wells of the microtiter plate. After 3 h (24 h or 48 h) of incubation at room temperature (or 37° C.), samples were filtered through Packard GF/B filters (presoaked in 0.05% polyethylenimine [PEI; Sigma P-3143]) and washed 10 times with 1 mL of cold 20 mM HEPES buffer per wash. After vacuum drying of the filter plates, 50 μL of Packard Microscint-20 was added and the bound radioactivity determined in a Packard TopCount.
Analogous binding experiments, to those described above for the cloned human receptor expressed in L(tk−) cells, were also performed using whole brain homogenate (rat), frontal cortex homogenate (dog and rhesus monkey), and temporal cortex homogenate (human).

[5] = rhesus, PO 15 mg/kg, mean (S.D.)
[6] = 1 mg/kg PO in β1 AR blocked animals (atenolol 1 mg/kg), 1 hour post dosing

## Cc1ccc(COC(=O)N2CC[C@H](CNc3ncccn3)[C@H](F)C2)cc1 [Form II, 4-methylbenzyl (3S, 4R)-3-fluoro-4-[(pyrimidin-2-ylamino)methyl] piperidine-1-carboxylate]
[1]; 15 mg/kg, dose-normalized AUC0-∞ after IV and PO, crossover
  bioavailability: 50%
[1]; po, 15 mg/kg, PO 15 mg/kg, mean (S.D.)
  Tmax: ~2 h
[1]; IV 2 mg/kg, mean (S.D.)
  half-life: 4.2 h
[1]; IV 2 mg/kg, mean (S.D.), read-out: CLp
  clearance: 15.1 mL/min/kg
[1]; IV 2 mg/kg, mean (S.D.), read-out: Vdss
  Vd: 2.9 L/kg
[1]; rhesus, IV 2 mg/kg, mean (S.D.)
  AUC(0-inf): 6.67 µM·h
[1]; [5]
  AUC(0-inf): 25.1 µM·h
  Cmax: 3.6 µM
[2]; 0.3 mg/kg PO
  DAP change: 4.1 ± 0.9 mmHg
  PP change: 0.1 ± 1.0 mmHg
  SAP change: 4.3 ± 1.2 mmHg
  Activity change: 0.012±0.025 arbitrary unit
  HR change: 15±10 bpm
  MAP change: 4.2±0.9 mmHg
[2]; 0.6 mg/kg PO
  DAP change: 7.8 ± 1.1 mmHg
  PP change: −1.5 ± 1.4 mmHg
  SAP change: 6.3 ± 1.6 mmHg
  Activity change: 0.003±0.033 arbitrary unit
  HR change: 10±15 bpm
  MAP change: 6.8±1.2 mmHg
[2]; 1 mg/kg PO in the setting of α1 AR blockade (prazosin 200 μg/kg)
  MAP increase with dosing: 11.3±2.0 mmHg
[2]; 1 mg/kg PO in the setting of α1 AR blockade (prazosin 200 μg/kg), 1 hour post dosing
  HR change vs pre-blockade baseline: 118±20 bpm
[2]; 1 mg/kg PO in β1 AR blocked animals (atenolol 1 mg/kg)
  HR increase post-dosing: 53±17 bpm
[2]; [6]
  HR change vs pre-blockade baseline: −7±17 bpm
  MAP change vs pre-blockade baseline: 5.8±4.8 mmHg
[2]; 1.0 mg/kg PO
  DAP change: 15.2 ± 3.0 mmHg
  PP change: 1.4 ± 1.1 mmHg
  SAP change: 16.8 ± 3.7 mmHg
  Activity change: 0.049±0.037 arbitrary unit
  HR change: 34±13 bpm
  MAP change: 15.7±3.2 mmHg
[2]; 3.0 mg/kg PO
  DAP change: 15.0 ± 2.0 mmHg
  PP change: 4.0 ± 0.9 mmHg
  SAP change: 19.2 ± 2.4 mmHg
  Activity change: 0.174±0.048 arbitrary unit
  HR change: 66±9 bpm
  MAP change: 17.1±2.3 mmHg
[2]; 10 mg/kg PO
  DAP change: 17.3 ± 1.9 mmHg
  PP change: 3.1 ± 1.3 mmHg
  SAP change: 20.7 ± 2.4 mmHg
  Activity change: 0.232±0.057 arbitrary unit
  HR change: 71±25 bpm
  MAP change: 19.1±2.4 mmHg
[3]
  concentration at 90 min: ~74 µM
dogs
  heart rate, arterial blood pressure, femoral blood flow: did not affect
  heart rhythm and ECG parameters incl. QTc interval: did not affect
rats; 15, 75, and 225 mg/kg oral
  respiratory function (respiratory rate, tidal volume, minute ventilation, PenH): respiratory stimulation
rats; ≥75 mg/kg oral
  respiratory function at end of 6-h monitoring period: remained altered
[4]; 37° C.
  Ki: 13 nM
[4]; room temp.
  Ki: 3.2 nM

— US12410153B2, “Compounds, compositions and methods” (Avalo Therapeutics, Inc., priority 2014, dated 2025)
